Common to all, as to format: functional
Assay [1] has as its target T1, Cdk-related protein kinase 6 (Plasmodium falciparum, UniProt O77239).
T1 sequence (O77239 whole entry): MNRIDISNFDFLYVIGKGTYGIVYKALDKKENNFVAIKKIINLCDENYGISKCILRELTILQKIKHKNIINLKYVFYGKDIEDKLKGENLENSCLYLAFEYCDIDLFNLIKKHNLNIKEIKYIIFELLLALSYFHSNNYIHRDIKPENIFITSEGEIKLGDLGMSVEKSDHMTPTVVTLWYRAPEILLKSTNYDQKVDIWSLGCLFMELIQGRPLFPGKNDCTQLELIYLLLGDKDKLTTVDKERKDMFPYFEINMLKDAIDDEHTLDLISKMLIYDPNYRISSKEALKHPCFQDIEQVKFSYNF
Kind of assay: Final concentrations were 1.5 uM ATP, 5 mM MnCl2, and 15 ug/ml PK6 in a buffer of 100 mM Tris-HCl (pH 7.5). 50 ug/mL MBP was provided as the substrate; 10 uM staurosporine was used as a control inhibitor. Incubation time was 3 hours and 40 minutes.The catalytic activity of each kinase was considered proportional to ATP consumed, as determined from measurements of residual [ATP] with the luciferase-based reagent Kinase-Glo (Promega) following incubation. Luminescence (proportional to residual [ATP]) was measured on the plate readers FLx800 (BioTek Instruments, Winooski, VT, USA) and MicroBeta2.

Assay [2] has as its target T2, Putative uncharacterized protein pk7 (Plasmodium falciparum, UniProt O96214).
T2 sequence (O96214 whole entry): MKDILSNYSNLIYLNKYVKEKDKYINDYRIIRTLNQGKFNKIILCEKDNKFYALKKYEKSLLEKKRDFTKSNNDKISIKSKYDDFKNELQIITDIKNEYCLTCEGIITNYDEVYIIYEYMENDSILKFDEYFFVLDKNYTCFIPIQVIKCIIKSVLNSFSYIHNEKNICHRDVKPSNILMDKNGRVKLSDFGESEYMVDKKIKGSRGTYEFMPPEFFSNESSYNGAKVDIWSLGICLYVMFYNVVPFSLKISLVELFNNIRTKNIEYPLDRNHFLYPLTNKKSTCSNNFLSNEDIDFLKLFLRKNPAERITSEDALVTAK
Briefly: Final concentrations were 1 uM ATP, 2 mM DTT, 20 mM MgCl2, 2 mM MnCl2, 0.01% BSA, and 6 ug/ml PK7, in a buffer of 20 mM Tris-HCl (pH 7.5). The enzyme itself was the only substrate present (since autophosphorylation occurs); 100 uM 1NA-PP1 was used as a control inhibitor. Incubation time was 3 hours.

In assay [3] the target is T3, Mitogen-activated protein kinase (Plasmodium falciparum, UniProt Q25917).
T3 sequence (Q25917 whole entry): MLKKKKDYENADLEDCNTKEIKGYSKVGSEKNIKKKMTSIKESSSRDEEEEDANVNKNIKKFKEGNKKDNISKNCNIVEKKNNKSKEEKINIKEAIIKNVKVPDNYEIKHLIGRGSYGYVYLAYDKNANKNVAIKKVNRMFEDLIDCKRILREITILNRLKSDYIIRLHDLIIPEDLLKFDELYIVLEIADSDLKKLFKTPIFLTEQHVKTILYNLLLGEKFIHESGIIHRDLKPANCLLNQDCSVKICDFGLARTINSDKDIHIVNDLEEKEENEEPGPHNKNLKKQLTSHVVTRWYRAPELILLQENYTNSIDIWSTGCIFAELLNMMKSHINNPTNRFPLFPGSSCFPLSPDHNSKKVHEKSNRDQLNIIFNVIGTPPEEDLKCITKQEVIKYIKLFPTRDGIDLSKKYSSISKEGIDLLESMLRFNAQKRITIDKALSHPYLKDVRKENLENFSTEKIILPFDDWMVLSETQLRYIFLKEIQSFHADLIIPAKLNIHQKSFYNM
Briefly: Final concentrations were 1 uM ATP, 0.5 mM DTT, 1 mM MgCl2, 0.5 mg/mL BSA, and 10 ug/ml MAP2 in a buffer of 50 mM HEPES (pH 7.0). 0.5 mg/mL histone III-S served as the substrate (13); 100 uM AMP-PNP, an ATP analog, was used as a control inhibitor. Incubation time was 4 hours.

Assay [4] deals with Calcium-dependent protein kinase 1 (Plasmodium falciparum, UniProt P62344). Briefly: MMV: CDPK1 Protein kinase inhibition assay using recombinant PfCDPK1, syntide 2 peptide substrate, ATP and KinaseGlo to measure % inhibition at 1 uM MMV box compound.
Sequence of Calcium-dependent protein kinase 1 (P62344 whole entry): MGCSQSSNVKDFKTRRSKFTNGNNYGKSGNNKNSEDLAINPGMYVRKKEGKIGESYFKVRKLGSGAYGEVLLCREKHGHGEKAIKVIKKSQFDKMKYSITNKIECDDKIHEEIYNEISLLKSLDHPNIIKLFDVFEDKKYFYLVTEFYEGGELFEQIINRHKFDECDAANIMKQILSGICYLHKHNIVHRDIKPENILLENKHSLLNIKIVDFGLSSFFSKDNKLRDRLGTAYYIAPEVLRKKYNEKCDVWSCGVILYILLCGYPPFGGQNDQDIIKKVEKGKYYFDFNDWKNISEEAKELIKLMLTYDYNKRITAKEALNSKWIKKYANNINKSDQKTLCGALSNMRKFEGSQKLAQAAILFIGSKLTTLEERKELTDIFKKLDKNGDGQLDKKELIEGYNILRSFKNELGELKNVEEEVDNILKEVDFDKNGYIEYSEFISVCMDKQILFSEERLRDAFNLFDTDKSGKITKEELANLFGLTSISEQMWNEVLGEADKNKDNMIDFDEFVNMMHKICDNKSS
Assay [5] addresses T4, Calcium-dependent protein kinase 4 (Plasmodium falciparum (isolate 3D7), UniProt Q8IBS5).
T4 sequence (Q8IBS5 whole entry): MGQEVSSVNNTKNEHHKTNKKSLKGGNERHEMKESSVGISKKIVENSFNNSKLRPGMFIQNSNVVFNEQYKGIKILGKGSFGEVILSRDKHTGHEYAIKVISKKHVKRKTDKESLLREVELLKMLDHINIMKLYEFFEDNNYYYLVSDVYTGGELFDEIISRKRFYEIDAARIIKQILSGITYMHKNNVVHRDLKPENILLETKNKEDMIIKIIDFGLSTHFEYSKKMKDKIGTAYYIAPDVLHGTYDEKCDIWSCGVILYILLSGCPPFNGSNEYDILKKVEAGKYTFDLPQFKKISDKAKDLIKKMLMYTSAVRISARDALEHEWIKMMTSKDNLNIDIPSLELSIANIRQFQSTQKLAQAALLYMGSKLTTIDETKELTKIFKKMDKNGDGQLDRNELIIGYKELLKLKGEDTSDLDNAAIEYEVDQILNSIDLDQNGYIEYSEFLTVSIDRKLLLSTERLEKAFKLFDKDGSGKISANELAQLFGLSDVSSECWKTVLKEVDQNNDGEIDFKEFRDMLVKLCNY
Kind of assay: MMV: CDPK4 Protein kinase inhibition assay using recombinant PfCDPK4, syntide2 peptide substrate, ATP and KinaseGlo to measure % inhibition at 1 uM MMV box compound.

Assay [6] has as its target T5, Proline--tRNA ligase (Plasmodium falciparum (isolate 3D7), UniProt Q8I5R7).
T5 sequence (Q8I5R7 whole entry): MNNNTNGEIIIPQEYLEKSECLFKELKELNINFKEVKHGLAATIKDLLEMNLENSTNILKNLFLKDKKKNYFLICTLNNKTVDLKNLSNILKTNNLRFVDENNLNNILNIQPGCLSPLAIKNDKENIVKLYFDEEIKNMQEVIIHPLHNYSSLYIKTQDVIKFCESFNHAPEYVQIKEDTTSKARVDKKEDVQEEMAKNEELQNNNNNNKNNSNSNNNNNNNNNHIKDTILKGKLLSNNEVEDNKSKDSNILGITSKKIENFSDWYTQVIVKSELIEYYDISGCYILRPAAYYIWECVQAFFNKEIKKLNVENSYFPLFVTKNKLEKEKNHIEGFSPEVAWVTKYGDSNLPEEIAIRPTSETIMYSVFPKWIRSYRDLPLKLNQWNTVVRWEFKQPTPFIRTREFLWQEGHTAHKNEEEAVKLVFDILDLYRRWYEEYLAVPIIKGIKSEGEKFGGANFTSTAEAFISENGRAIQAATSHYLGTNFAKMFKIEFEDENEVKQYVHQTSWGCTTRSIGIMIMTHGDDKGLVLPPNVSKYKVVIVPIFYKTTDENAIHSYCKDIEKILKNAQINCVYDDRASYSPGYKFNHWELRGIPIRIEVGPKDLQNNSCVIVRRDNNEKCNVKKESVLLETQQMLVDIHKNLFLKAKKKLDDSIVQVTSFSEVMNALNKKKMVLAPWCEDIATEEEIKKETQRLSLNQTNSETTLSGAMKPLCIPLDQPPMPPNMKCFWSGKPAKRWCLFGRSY
Kind of assay: MMV: ProRS recombinant Plasmodium falciparum Prolyl-tRNA-synthetase, assay with yeast tRNA, ATP, and proline and 3 uM MMV malaria box compound, assay read out with kinase glo as % inhibition.

The target of assay [7] is Lysine--tRNA ligase (Plasmodium falciparum (isolate 3D7), UniProt Q8IDJ8). Briefly: MMV: KRS recombinant Plasmodium falciparum Lysyl-tRNA-synthetase, assay with yeast tRNA, ATP, and lysine and 3 uM MMV malaria box compound, assay read out with kinase glo as % inhibition.
Sequence of Lysine--tRNA ligase (Q8IDJ8 whole entry): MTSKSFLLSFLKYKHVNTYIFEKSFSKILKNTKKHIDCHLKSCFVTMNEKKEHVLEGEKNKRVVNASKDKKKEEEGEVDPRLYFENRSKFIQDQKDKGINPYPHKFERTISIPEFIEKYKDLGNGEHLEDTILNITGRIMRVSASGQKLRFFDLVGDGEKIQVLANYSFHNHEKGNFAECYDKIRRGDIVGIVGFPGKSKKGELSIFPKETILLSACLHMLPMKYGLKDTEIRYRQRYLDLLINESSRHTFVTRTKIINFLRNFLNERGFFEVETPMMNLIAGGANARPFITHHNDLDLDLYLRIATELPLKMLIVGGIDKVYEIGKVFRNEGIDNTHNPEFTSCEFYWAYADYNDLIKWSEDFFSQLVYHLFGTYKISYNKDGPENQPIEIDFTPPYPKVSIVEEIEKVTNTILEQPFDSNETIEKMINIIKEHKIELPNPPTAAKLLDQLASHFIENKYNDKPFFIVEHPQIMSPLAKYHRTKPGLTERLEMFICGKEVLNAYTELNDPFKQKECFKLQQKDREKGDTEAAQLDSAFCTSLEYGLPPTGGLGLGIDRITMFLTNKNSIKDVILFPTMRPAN

Some results are limits rather than exact numbers.

Turning to `CN1CCN(c2ccc(Nc3c4ccccc4nc4ccccc34)cc2)CC1`, the IC50 in assay [1] is greater than 1000 nM; in assay [2], greater than 1000 nM; in assay [3], greater than 1000 nM; in assay [4], greater than 1000 nM; in assay [5], greater than 1000 nM; in assay [6], greater than 2500 nM. In assay [7], the IC50 was greater than 2500 nM.

With `CCN(CC)CCNc1ccnc2cc(Cl)ccc12`, the concentration for half-maximal inhibition (IC50) in assay [1] is greater than 1000 nM; in assay [2] it was greater than 1000 nM; in assay [3] it was greater than 1000 nM; in assay [4], greater than 1000 nM; in assay [5] it was greater than 1000 nM; in assay [6] it was greater than 2500 nM. Moreover, the IC50 in assay [7] is greater than 2500 nM.

On to `Cc1cc(Nc2ccc3ccccc3c2)n2ncnc2n1`, for which the IC50 in assay [1] was greater than 1000 nM; in assay [2] it was greater than 1000 nM; in assay [3], greater than 1000 nM; in assay [4] it was greater than 1000 nM; in assay [5], greater than 1000 nM; in assay [6] it was greater than 2500 nM. Also, in assay [7], the IC50 is greater than 2500 nM.

`CCC(c1ccccc1)c1nn2c(-c3cccs3)nnc2s1` (stereo not given): the IC50 in assay [1] was greater than 1000 nM; in assay [2], greater than 1000 nM; in assay [3], greater than 1000 nM; in assay [4], greater than 1000 nM; in assay [5] it was greater than 1000 nM; in assay [6] it was greater than 2500 nM. Besides, the IC50 in assay [7] was greater than 2500 nM.

As to `CC1CN(C(=O)c2sc3ccccc3c2Cl)CC(C)O1` (stereo not given), the IC50 in assay [1] is greater than 1000 nM; in assay [2] it was greater than 1000 nM; in assay [3], greater than 1000 nM; in assay [4], greater than 1000 nM; in assay [5], greater than 1000 nM; in assay [6], greater than 2500 nM. Further, in assay [7], the IC50 was greater than 2500 nM.

In the case of `CN(C)c1ccc(C=Cc2nc(=O)c3ccccc3o2)cc1`, the IC50 in assay [1] was greater than 1000 nM; in assay [2] it was greater than 1000 nM; in assay [3], greater than 1000 nM; in assay [4], greater than 1000 nM; in assay [5], greater than 1000 nM; in assay [6], greater than 2500 nM. Besides, the IC50 in assay [7] was greater than 2500 nM.

As to `CCOC(=O)c1c(NC(=O)c2ccccc2)sc2c(O)c(CN(CC)CC)ccc12`, the IC50 in assay [1] is greater than 1000 nM; in assay [2], greater than 1000 nM; in assay [3], greater than 1000 nM; in assay [4] it was greater than 1000 nM; in assay [5], greater than 1000 nM; in assay [6] it was greater than 2500 nM. Also, in assay [7], the IC50 is greater than 2500 nM.

In the case of `OC(CNC1CCCCC1)Cn1c2ccccc2c2ccccc21` (stereo not given), the IC50 was greater than 1000 nM in assay [1]; greater than 1000 nM in assay [2]; greater than 1000 nM in assay [3]; greater than 1000 nM in assay [4]; greater than 1000 nM in assay [5]; greater than 2500 nM in assay [6]. Further, the IC50 in assay [7] is greater than 2500 nM.

As for `CCCN(CCC)CC(O)COc1ccccc1C(=O)Nc1ccccc1` (stereo not given), the IC50 in assay [1] was greater than 1000 nM; in assay [2], greater than 1000 nM; in assay [3] it was greater than 1000 nM; in assay [4] it was greater than 1000 nM; in assay [5], greater than 1000 nM; in assay [6], greater than 2500 nM. Moreover, in assay [7], the IC50 is greater than 2500 nM.

As to `COc1ccc(NC(=O)C2c3ccccc3C(=O)N(CC(C)C)C2c2cccs2)cc1Cl` (stereo not given), the IC50 in assay [1] was greater than 1000 nM; in assay [2], greater than 1000 nM; in assay [3], greater than 1000 nM; in assay [4], greater than 1000 nM; in assay [5], greater than 1000 nM; in assay [6], greater than 2500 nM. Also, the IC50 in assay [7] was greater than 2500 nM.

As for `CCOC(=O)c1c(C)n(-c2ccc(Cl)cc2)c2ccc(OC(=O)C=Cc3ccccc3)cc12`, the IC50 in assay [1] was greater than 1000 nM; in assay [2], greater than 1000 nM; in assay [3], greater than 1000 nM; in assay [4], greater than 1000 nM; in assay [5] it was greater than 1000 nM; in assay [6] it was greater than 2500 nM. Moreover, the IC50 in assay [7] was greater than 2500 nM.

Consider `C=CC12CCN(CC1)C(C(O)c1ccnc3ccc(OC)cc13)C2` (stereo not given), for which the IC50 was greater than 1000 nM in assay [1]; greater than 1000 nM in assay [2]; greater than 1000 nM in assay [3]; greater than 1000 nM in assay [4]; greater than 1000 nM in assay [5]; greater than 2500 nM in assay [6]. Moreover, the IC50 in assay [7] was greater than 2500 nM.

`Cc1cc(C)c2c(c1)OCN(Cc1ccccc1Cl)C2`: the IC50 in assay [1] is greater than 1000 nM; in assay [2], greater than 1000 nM; in assay [3] it was greater than 1000 nM; in assay [4], greater than 1000 nM; in assay [5], greater than 1000 nM; in assay [6], greater than 2500 nM. In assay [7], the IC50 is greater than 2500 nM.

Consider `Cc1ccc(N2C3c4ccccc4N(S(=O)(=O)c4ccc(C)cc4)C2c2ccccc2N3S(=O)(=O)c2ccc(C)cc2)cc1`, for which the IC50 in assay [1] is greater than 1000 nM; in assay [2] it was greater than 1000 nM; in assay [3], greater than 1000 nM; in assay [4], greater than 1000 nM; in assay [5], greater than 1000 nM; in assay [6] it was greater than 2500 nM. The IC50 in assay [7] is greater than 2500 nM.

Regarding `c1ccc(Cn2c(N=Nc3c(Nc4ccccc4)ccc4ccccc34)nc3ccccc32)cc1`, the IC50 in assay [1] was greater than 1000 nM; in assay [2], greater than 1000 nM; in assay [3], greater than 1000 nM; in assay [4], greater than 1000 nM; in assay [5], greater than 1000 nM; in assay [6], greater than 2500 nM. Besides, the IC50 in assay [7] was greater than 2500 nM.

Source of the values: ChEMBL document CHEMBL3301562, “MMV Box screening against Plasmodium falciparum protein kinases and aminoacyl tRNA synthetases”.
